IC50 and Ratio IC50 data for 54 compounds are collected here from ChEMBL document CHEMBL1773061, “Chiral sulfoxides as metabolites of 2-thioimidazole-based p38α mitogen-activated protein kinase inhibitors: enantioselective synthesis and biological evaluation” (J Med Chem, 2011).

Format in all cases: tissue-based
Test [1] has as its target T1, Mitogen-activated protein kinase 14 (Homo sapiens, UniProt Q16539). The test can be described thus: Inhibition of p38 alpha MAPK in human whole blood assessed as suppression of LPS-induced TNF-alpha release by immunosorbent non-radioactive enzyme assay.
For test [2], the target named is T1, Mitogen-activated protein kinase 14. The test can be described thus: Inhibition of p38 alpha MAPK in human whole blood assessed as phosphorylation of ATF-2 by immunosorbent non-radioactive enzyme assay.
Test [3] has the same target. Put plainly: Inhibition of p38 alpha MAPK in human whole blood assessed as suppression of LPS-induced TNF-alpha release by immunosorbent non-radioactive enzyme assay relative to SB203580.
Test [4] shares this target. Put plainly: Inhibition of p38 alpha MAPK in human whole blood assessed as phosphorylation of ATF-2 by immunosorbent non-radioactive enzyme assay relative to SB203580.

T1 sequence (Q16539 whole entry): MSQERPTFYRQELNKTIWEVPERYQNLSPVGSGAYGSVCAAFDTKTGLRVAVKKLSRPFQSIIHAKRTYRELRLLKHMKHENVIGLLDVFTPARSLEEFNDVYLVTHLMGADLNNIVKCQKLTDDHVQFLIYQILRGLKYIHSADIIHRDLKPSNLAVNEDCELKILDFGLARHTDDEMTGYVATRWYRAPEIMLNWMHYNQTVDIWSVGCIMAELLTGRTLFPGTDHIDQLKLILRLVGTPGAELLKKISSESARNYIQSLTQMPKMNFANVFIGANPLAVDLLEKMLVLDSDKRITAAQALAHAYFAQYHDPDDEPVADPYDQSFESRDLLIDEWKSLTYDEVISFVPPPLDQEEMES

Turning to `CC(C)Nc1cc(-c2nc([S@+]([O-])C(C)C)[nH]c2-c2ccc(F)cc2)ccn1`, the results for the IC50 in test [1] and in test [2] were 450 nM and 4 nM, respectively.
With `CSc1nc(-c2ccc(F)cc2)c(-c2ccnc(NC(=O)Cc3ccc(F)cc3)c2)[nH]1`, the Ratio IC50 in test [3] was 0.66; in test [4] it was 3.44.
Take `C[S@+]([O-])c1nc(-c2ccc(F)cc2)c(-c2ccnc(NC(=O)Cc3ccc(F)cc3)c2)[nH]1`: the Ratio IC50 worked out at 0.23 in test [3] and 0.55 in test [4].
`C[S@+]([O-])c1nc(-c2ccc(F)cc2)c(-c2ccnc(NC3CCCCC3)c2)[nH]1`: the figures for the Ratio IC50 in test [3] and in test [4] were 2.08 and 1.48, respectively.
As for `C[C@@H](Nc1cc(-c2[nH]c([S@@+](C)[O-])nc2-c2ccc(F)cc2)ccn1)c1ccccc1`, the Ratio IC50 in test [4] came out at 0.49.
For the compound `CC(=O)Nc1cc(-c2c(-c3ccc(F)cc3)nc([S@@+](C)[O-])n2C)ccn1`, in test [2], the IC50 stood at 1030 nM. Also, the Ratio IC50 in test [4] is 0.035.
Turning to `CC(C)Sc1nc(-c2ccnc(NC3CCCCC3)c2)c(-c2ccc(F)cc2)[nH]1`, the IC50 was determined as 650 nM in test [1] and 12 nM in test [2].
Consider `C[C@@H](Nc1cc(-c2[nH]c([S@+](C)[O-])nc2-c2ccc(F)cc2)ccn1)c1ccccc1`, for which, in test [2], the IC50 turned out to be 200 nM. The Ratio IC50 in test [4] came to 0.42.
Regarding `CSc1nc(-c2ccc(F)cc2)c(-c2ccnc(N[C@@H](C)C(C)C)c2)[nH]1`, the IC50 in test [1] was 50 nM; in test [2] it was 26 nM. The Ratio IC50 worked out at 31.2 in test [3] and 1.81 in test [4].
For `C[C@H](Nc1cc(-c2[nH]c([S+](C)[O-])nc2-c2ccc(F)cc2)ccn1)c1ccccc1` (mixture of isomers), the IC50 was found to be 6280 nM in test [1] and 95 nM in test [2]. Also, the Ratio IC50 in test [3] was 0.25; in test [4], 0.53.
As for `CC(C)[S@+]([O-])c1nc(-c2ccc(F)cc2)c(-c2ccnc(NC3CCCCC3)c2)[nH]1`, the Ratio IC50 was 5.62 in test [3] and 1.62 in test [4].
With `CC(C)[C@@H](C)Nc1cc(-c2[nH]c([S+](C)[O-])nc2-c2ccc(F)cc2)ccn1` (mixture of isomers), the IC50 is 1340 nM in test [1] and 61 nM in test [2]. The Ratio IC50 is 0.92 in test [3] and 1.18 in test [4].
In the same order, the values of `CC(C)Nc1cc(-c2[nH]c([S+](C)[O-])nc2-c2ccc(F)cc2)ccn1` (racemic) are 470 nM, 2 nM, 2.62 and 7.5.
In the same order, the values of `C[S+]([O-])c1nc(-c2ccc(F)cc2)c(-c2ccnc(NC3CCCCC3)c2)[nH]1` (racemic) are 620 nM, 34 nM, 1.98 and 1.68.
On to `C[S@+]([O-])c1nc(-c2ccnc(NC3CCCCC3)c2)c(-c2ccc(F)cc2)[nH]1`, for which the IC50 in test [1] turned out to be 590 nM; in test [2] it was 50 nM.
With `CSc1nc(-c2ccnc(NC3CCOCC3)c2)c(-c2ccc(F)cc2)[nH]1`, the IC50 in test [1] came out at 180 nM.
Consider `CC(C)[C@@H](C)Nc1cc(-c2[nH]c([S@@+](C)[O-])nc2-c2ccc(F)cc2)ccn1`, for which the IC50 in test [1] turned out to be 900 nM; in test [2], 31 nM. The Ratio IC50 stood at 1.72 in test [3] and 2.32 in test [4].
Regarding `C[S@+]([O-])c1nc(-c2ccnc(NC3CCOCC3)c2)c(-c2ccc(F)cc2)[nH]1`, the IC50 came out at 830 nM in test [1] and 34 nM in test [2].
On to `CC(C)[S@+]([O-])c1nc(-c2ccnc(NC3CCCCC3)c2)c(-c2ccc(F)cc2)[nH]1`, for which the IC50 in test [1] is 340 nM; in test [2], 21 nM.
The matching figures for `C[C@H](Nc1cc(-c2nc([S@+](C)[O-])[nH]c2-c2ccc(F)cc2)ccn1)c1ccccc1`: 5520 nM and 45 nM.
On to `C[C@H](Nc1cc(-c2[nH]c([S@+](C)[O-])nc2-c2ccc(F)cc2)ccn1)c1ccccc1`, for which the Ratio IC50 came out at 0.28 in test [3] and 0.62 in test [4].
Take `C[C@@H](Nc1cc(-c2[nH]c([S+](C)[O-])nc2-c2ccc(F)cc2)ccn1)c1ccccc1` (mixture of isomers): the IC50 in test [2] is 207 nM. Moreover, the Ratio IC50 in test [4] is 0.28.
With `CC(C)Sc1nc(-c2ccc(F)cc2)c(-c2ccnc(NC3CCCCC3)c2)[nH]1`, the values for the Ratio IC50 in test [3] and in test [4] were 2.86 and 4.17, respectively.
Consider `CC(C)Nc1cc(-c2[nH]c([S@+]([O-])C(C)C)nc2-c2ccc(F)cc2)ccn1`, for which the Ratio IC50 in test [3] was 4.24; in test [4], 9.25.
For the compound `C[S@+]([O-])c1nc(-c2ccnc(NC(=O)Cc3ccc(F)cc3)c2)c(-c2ccc(F)cc2)[nH]1`, the results for the IC50 in test [1] and in test [2] were 7530 nM and 141 nM, respectively.
As for `CC(=O)Nc1cc(-c2[nH]c([S+](C)[O-])nc2-c2ccc(F)cc2)ccn1` (racemic), in test [2], the IC50 turned out to be 403 nM. The Ratio IC50 in test [4] is 0.1.
`CSc1nc(-c2ccnc(NC3CCCCC3)c2)c(-c2ccc(F)cc2)[nH]1`: the IC50 turned out to be 170 nM in test [1] and 27 nM in test [2].
As to `CC(C)[C@H](C)Nc1cc(-c2[nH]c([S@@+](C)[O-])nc2-c2ccc(F)cc2)ccn1`, the figures for the Ratio IC50 in test [3] and in test [4] were 8.5 and 3.05, respectively.
Turning to `CC(C)[C@H](C)Nc1cc(-c2[nH]c([S@+](C)[O-])nc2-c2ccc(F)cc2)ccn1`, the IC50 in test [1] came out at 250 nM; in test [2], 27 nM. Further, the Ratio IC50 was 6.8 in test [3] and 2.15 in test [4].
Turning to `CSc1nc(-c2ccnc(NC(=O)Cc3ccc(F)cc3)c2)c(-c2ccc(F)cc2)[nH]1`, in test [1], the IC50 came to 2980 nM.
Consider `C[S@@+]([O-])c1nc(-c2ccc(F)cc2)c(-c2ccnc(NC3CCCCC3)c2)[nH]1`, for which the values for the IC50 in test [1] and in test [2] were 550 nM and 29 nM, respectively. For the same compound, the Ratio IC50 in test [3] is 3.09; in test [4] it was 2.55.
Take `C[S+]([O-])c1nc(-c2ccc(F)cc2)c(-c2ccnc(NC(=O)Cc3ccc(F)cc3)c2)[nH]1` (racemic): the IC50 in test [1] came to 5550 nM; in test [2], 69 nM. The results for the Ratio IC50 in test [3] and in test [4] were 0.31 and 1.16, respectively.
In the case of `CSc1nc(-c2ccc(F)cc2)c(-c2ccnc(NC3CCCCC3)c2)[nH]1`, the Ratio IC50 in test [3] was found to be 7.24; in test [4] it was 2.89.
With `CC(=O)Nc1cc(-c2nc([S@@+](C)[O-])[nH]c2-c2ccc(F)cc2)ccn1`, the IC50 in test [2] came to 161 nM.
`CSc1nc(-c2ccc(F)cc2)c(-c2ccnc(NC(C)=O)c2)n1C`: in test [2], the IC50 worked out at 188 nM. In addition, the Ratio IC50 in test [4] came to 0.28.
As for `C[S@+]([O-])c1nc(-c2ccc(F)cc2)c(-c2ccnc(NC3CCOCC3)c2)[nH]1`, the Ratio IC50 in test [3] worked out at 2.05; in test [4], 1.38.
With `CC(=O)Nc1cc(-c2c(-c3ccc(F)cc3)nc([S+](C)[O-])n2C)ccn1` (racemic), in test [2], the IC50 stood at 1070 nM. For the same compound, the Ratio IC50 in test [4] turned out to be 0.042.
Turning to `CC(C)[C@H](C)Nc1cc(-c2[nH]c([S+](C)[O-])nc2-c2ccc(F)cc2)ccn1` (mixture of isomers), the IC50 in test [1] worked out at 150 nM; in test [2], 17 nM. The Ratio IC50 in test [3] turned out to be 10.4; in test [4] it was 3.41.
In the same order, the values of `C[C@H](Nc1cc(-c2[nH]c([S@@+](C)[O-])nc2-c2ccc(F)cc2)ccn1)c1ccccc1` are 10000 nM, 25 nM, 0.16 and 1.12.
For the compound `C[S@@+]([O-])c1nc(-c2ccnc(NC3CCOCC3)c2)c(-c2ccc(F)cc2)[nH]1`, the values for the IC50 in test [1] and in test [2] were 790 nM and 11 nM, respectively.
The matching figures for `CC(C)[C@@H](C)Nc1cc(-c2nc([S@+](C)[O-])[nH]c2-c2ccc(F)cc2)ccn1`: 750 nM and 36 nM.
Consider `CC(C)Nc1cc(-c2[nH]c([S@@+](C)[O-])nc2-c2ccc(F)cc2)ccn1`, for which the Ratio IC50 in test [3] worked out at 3.62; in test [4] it was 5.08.
Turning to `CC(=O)Nc1cc(-c2c(-c3ccc(F)cc3)nc([S@+](C)[O-])n2C)ccn1`, in test [2], the IC50 was 1260 nM. Further, in test [4], the Ratio IC50 turned out to be 0.028.
For `CC(C)Nc1cc(-c2[nH]c([S@@+]([O-])C(C)C)nc2-c2ccc(F)cc2)ccn1`, the Ratio IC50 turned out to be 3.13 in test [3] and 6.17 in test [4].
As to `C[S@@+]([O-])c1nc(-c2ccc(F)cc2)c(-c2ccnc(NC3CCOCC3)c2)[nH]1`, the Ratio IC50 turned out to be 2.15 in test [3] and 4.45 in test [4].
As for `CSc1nc(-c2ccc(F)cc2)c(-c2ccnc(NC3CCOCC3)c2)[nH]1`, the Ratio IC50 came to 10.7 in test [3] and 9.8 in test [4].
Turning to `CSc1nc(-c2ccc(F)cc2)c(-c2ccnc(NC(C)=O)c2)[nH]1`, in test [2], the IC50 came to 37 nM. The Ratio IC50 in test [4] stood at 2.11.
For `CC(=O)Nc1cc(-c2[nH]c([S@+](C)[O-])nc2-c2ccc(F)cc2)ccn1`, in test [2], the IC50 stood at 197 nM. In test [4], the Ratio IC50 was determined as 0.45.
Regarding `CC(C)Nc1cc(-c2nc([S@@+](C)[O-])[nH]c2-c2ccc(F)cc2)ccn1`, the IC50 came to 530 nM in test [1] and 12 nM in test [2].
Regarding `CC(C)[C@@H](C)Nc1cc(-c2[nH]c([S@+](C)[O-])nc2-c2ccc(F)cc2)ccn1`, the Ratio IC50 came to 2.07 in test [3] and 1.44 in test [4].
For the compound `CC(C)Nc1cc(-c2nc([S@@+]([O-])C(C)C)[nH]c2-c2ccc(F)cc2)ccn1`, the IC50 in test [1] is 610 nM; in test [2] it was 6 nM.
In the case of `CC(=O)Nc1cc(-c2[nH]c([S@@+](C)[O-])nc2-c2ccc(F)cc2)ccn1`, the Ratio IC50 in test [4] is 0.55.
Regarding `C[C@@H](Nc1cc(-c2nc([S@@+](C)[O-])[nH]c2-c2ccc(F)cc2)ccn1)c1ccccc1`, the IC50 in test [2] came to 168 nM.
Regarding `CC(C)[C@H](C)Nc1cc(-c2nc([S@@+](C)[O-])[nH]c2-c2ccc(F)cc2)ccn1`, the half-maximal inhibitory concentration (IC50) in test [1] was found to be 200 nM; in test [2], 19 nM.
